# Measured values taken from patent US20040053962A1, “Methods for inhibiting proliferation and inducing apoptosis in cancer cells” (priority 2003, published 2004).
# Assays:
# [1] = tested on: Capan-1 pancreatic cancer cell line; experiment: [3H]-thymidine incorporation (DNA synthesis), Capan-1; type: cell-based; details: mean±SEM; for proliferation (thymidine incorporation), % control: 24 hours
# Experimental: (§1) Cell culture. The following pancreatic cancer cell lines were used: MiaPaCa-2 and PANC-1 (poorly-differentiated); Capan-1 and Capan-2 (well-differentiated); and HPAF and AsPC-1 (pleomorphic). These were purchased from American Type Culture Collection (Rockville, Md.). PANC-1 and MiaPaCa-2 were grown in DMEM media; HPAF and AsPC-1 were grown in MEM media; and Capan-1 and Capan-2 were grown in-McCoy's media. Media were supplemented with 10% FBS, and the cells were grown as monolayers in a humidified atmosphere of […] and 5% CO2 at 37° C. The cells were regularly seeded into 75 cm^2 flask with media changed every other day. For experiments, cells were grown to 80% confluence, digested with trypsin-EDTA, and plated either in 12 or 24-well plates at a concentration of 50,000/ml, as appropriate.
# (§2) DNA synthesis by [^3H]-Thymidine incorporation. Cells were plated in 12 or 24-well plates. After reaching 70% confluence, they were incubated in serum-free media for 24 hours, which was then replaced with fresh serum-free media with or without the appropriate concentration of leukotriene B4 receptor antagonist LY293111 (62.5-1000 nM), LTB4 (100-400 nM), or both. After the appropriate period of culture, cellular DNA synthesis was assayed by adding 0.5 μCi/well of [^3H]-methyl-thymidine and incubating for another 2 hours. Then, the cells were washed twice with PBS, fixed with 10% trichloroacetic acid (“TCA”) for 30 minutes, and solubilized by adding 0.4 M NaOH to each well. Radioactivity, indicating incorporation of ^3H-thymidine into DNA, was measured by adding a scintillation cocktail and counting on a scintillation counter (LKB RackBeta, Wallac, Turku, Finland)
# [2] = tested on: PANC-1 pancreatic cancer cell line; experiment: [3H]-thymidine incorporation (DNA synthesis), PANC-1; type: cell-based; details: mean±SEM; for proliferation (thymidine incorporation), % control: 24 hours
# Experimental: as §1, §2
# [3] = tested on: MiaPaCa-2 cells; experiment: TUNEL assay (flow cytometry), MiaPaCa-2; type: cell-based; details: control 1.5%
# Experimental: TUNEL assay. Apoptosis was measured by flow cytometry using a terminal deoxynucleotidyl transferase-mediated deoxyuridine triphosphate nick-end labeling (“TUNEL”) assay. Cells were treated with LY293111 for the appropriate period of time, then digested with trypsin-EDTA, washed with ice-cold PBS twice, and fixed in 10% paraformaldehyde on ice for 20 minutes. Cells were then washed with PBS, permeabilized with 70% ethanol for at least 4 hours, washed again with PBS and incubated with 2.5 units of terminal deoxynucleotidyl transferase (TdT enzyme) and 100 pmol Br-dUTP in DNA labeling solution for one hour at 37° C. Cells were then rinsed twice, resuspended in 0.1 ml fluorescein labeled anti-BrdU antibody solution in the dark for 30 minutes. Then 0.5 ml propidium iodide/RNase A solution was added, and the cells analyzed by flow cytometry at 488 nm excitation.
# [4] = tested on: Capan-2 pancreatic cancer cell line; experiment: [3H]-thymidine incorporation (DNA synthesis), Capan-2; type: cell-based; details: mean±SEM; for proliferation (thymidine incorporation), % control: 24 hours
# Experimental: as §1, §2
# [5] = tested on: pancreatic cancer cell lines; experiment: Proliferation of pancreatic cancer cell lines (summary statement); type: cell-based
# Experimental: as §1
# DNA synthesis by [^3H]-Thymidine incorporation. Cells were plated in 12 or 24-well plates. After reaching 70% confluence, they were incubated in serum-free media for 24 hours, which was then replaced with fresh serum-free media with or without the appropriate concentration of leukotriene B4 receptor antagonist LY293111 (62.5-1000 nM), LTB4 (100-400 nM), or both. […] Radioactivity, indicating incorporation of ^3H-thymidine into DNA, was measured by adding a scintillation cocktail and counting on a scintillation counter (LKB RackBeta, Wallac, Turku, Finland)
# [6] = tested on: HPAF pancreatic cancer cell line; experiment: [3H]-thymidine incorporation (DNA synthesis), HPAF; type: cell-based; details: for proliferation (thymidine incorporation), % control / proliferation, % control (time course): mean±SEM
# Experimental: as §1, §2
# [7] = tested on: AsPc-1 human pancreatic tumor cell line xenograft; experiment: AsPc-1 xenograft tumor growth in athymic mice; type: in vivo; details: 0.01% LY293111 in the drinking water, started four days after s.c. injection of 3 million AsPc-1 cells
# Experimental: Athymic mice received a subcutaneous injection of 3 million cancer cells in 50 μl of serum-free media. The highly malignant and aggressive pancreatic tumor cell line, AsPc-1, was used in this experiment. The tumors were allowed to establish and grow for four days prior to treatment with 0.01% LY293111 in the drinking water.
# [8] = tested on: Bcl-2 in MCF-7 breast cancer cells; experiment: Bcl-2 expression by western blotting; type: cell-based; details: MCF-7, LY293111 500 nM
# [9] = tested on: MiaPaCa-2 cells; experiment: DNA fragmentation assay (agarose gel), MiaPaCa-2; type: cell-based; details: MiaPaCa-2, 250, 500 and 1000 nM for 48 hours; no ladder in control cells
# Experimental: DNA fragmentation assay. For analysis of DNA fragmentation by agarose gel electrophoresis, treated pancreatic cancer cells were detached from 75 cm^2 flask with trypsin-EDTA, washed twice with PBS, resuspended in 1 ml lysis buffer (25 mM EDTA, 10 mM Tris, 0.5% Triton X-100, and 1% SDS), and freeze-thawed at −80° C. overnight. Then, an equal volume of PEG/NaCl stock solution was added to the lysates to give a final concentration of 0.25% PEG and 1 M NaCl, and the tubes were centrifuged at 13,200 g at 4° C. for 30 minutes. The supernatants containing fragmented small molecular weight DNA were then incubated with RNAse A (0.3 mg/ml) at 37° C. for one hour and then with […] proteinase K (10 mg/ml) for three hours. Samples were then extracted with phenol-chloroform and precipitated with 70% ethanol overnight. The pellets containing DNA were then resuspended in […] of TE buffer, subjected to electrophoresis on a 1.8% agarose gel containing ethidium bromide ([…]), visualized by UV illumination, and analyzed using a Molecular Analyst Gel Documentation system (Bio-rad Laboratories, Hercules, Calif.).
smiles,measurement,setting,value
"CCCc1c(OCCCOc2cc(O)c(-c3ccc(F)cc3)cc2CC)cccc1Oc1ccccc1C(=O)O [LY293111, 2-(2-propyl-3-(3-(2-ethyl-4-(4-fluorophenyl)-5-hydroxyphenoxy)propoxy)-phenoxy)benzoic acid]","proliferation (thymidine incorporation), % control","[1]; Capan-1, LY293111 62.5 nM",99.1 ± 4.8 % control
same,"proliferation (thymidine incorporation), % control","[1]; Capan-1, LY293111 125 nM",56.9 ± 4.9 % control
same,"proliferation (thymidine incorporation), % control","[1]; Capan-1, LY293111 250 nM",16.4 ± 2.0 % control
same,"proliferation, % control (time course)","[1]; Capan-1, LY293111 500 nM, 6 h",70.5 ± 8.7 % control
same,"proliferation, % control (time course)","[1]; Capan-1, LY293111 500 nM, 12 h",44.5 ± 10.2 % control
same,"proliferation, % control (time course)","[1]; Capan-1, LY293111 500 nM, 24 h",15.7 ± 3.4 % control
same,"proliferation (thymidine incorporation), % control","[1]; Capan-1, LY293111 500 nM",15.7 ± 3.4 % control
same,"proliferation (thymidine incorporation), % control","[1]; Capan-1, LY293111 1000 nM",0.2 ± 0.3 % control
same,"proliferation (thymidine incorporation), % control","[2]; PANC-1, LY293111 62.5 nM",89.4 ± 4.4 % control
same,"proliferation (thymidine incorporation), % control","[2]; PANC-1, LY293111 125 nM",65.2 ± 3.8 % control
same,"proliferation, % control (time course)","[2]; PANC-1, LY293111 500 nM, 6 h",60.2 ± 6.5 % control
same,"proliferation, % control (time course)","[2]; PANC-1, LY293111 500 nM, 12 h",48.9 ± 5.3 % control
same,"proliferation, % control (time course)","[2]; PANC-1, LY293111 500 nM, 24 h",13.6 ± 1.0 % control
same,"proliferation (thymidine incorporation), % control","[2]; PANC-1, LY293111 500 nM",12.4 ± 3.1 % control
same,"proliferation (thymidine incorporation), % control","[2]; PANC-1, LY293111 1000 nM",5.6 ± 1.0 % control
same,apoptosis (TUNEL),"[3]; MiaPaCa-2, 250 nM LY293111 for 24 hours",12.6%
same,apoptosis (TUNEL),"[3]; MiaPaCa-2, 500 nM LY293111 for 24 hours",18.6%
same,"proliferation (thymidine incorporation), % control","[4]; Capan-2, LY293111 62.5 nM",95.4 ± 8.7 % control
same,"proliferation (thymidine incorporation), % control","[4]; Capan-2, LY293111 125 nM",67.3 ± 6.8 % control
same,"proliferation (thymidine incorporation), % control","[4]; Capan-2, LY293111 250 nM",51.2 ± 5.8 % control
same,"proliferation, % control (time course)","[4]; Capan-2, LY293111 500 nM, 6 h",57.8 ± 4.3 % control
same,"proliferation, % control (time course)","[4]; Capan-2, LY293111 500 nM, 12 h",32.1 ± 5.6 % control
same,"proliferation, % control (time course)","[4]; Capan-2, LY293111 500 nM, 24 h",10.9 ± 6.0 % control
same,"proliferation (thymidine incorporation), % control","[4]; Capan-2, LY293111 500 nM",15.8 ± 9.6 % control
same,"proliferation (thymidine incorporation), % control","[4]; Capan-2, LY293111 1000 nM",8.9 ± 2.1 % control
same,inhibition at 0.25 µM,[5]; LY293111 250 nM,≥ 50%
same,inhibition at 1 µM,[5]; LY293111 1000 nM,> 95%
same,decrease of proliferation,"[6]; HPAF (FIG. 6B), LY293111 250 nM, 24 hours",50%
same,proliferation with combination of LTB4 and LY293111,"[6]; HPAF, 250 nM LY293111 + 100 nM LTB4, 24 hours",restored to almost the control level
same,"proliferation (thymidine incorporation), % control","[6]; HPAF, LY293111 62.5 nM, 24 hours",103.6 ± 21.8 % control
same,"proliferation (thymidine incorporation), % control","[6]; HPAF, LY293111 125 nM, 24 hours",97.6 ± 24.5 % control
same,"proliferation (thymidine incorporation), % control","[6]; HPAF, LY293111 250 nM, 24 hours",49.3 ± 9.0 % control
same,"proliferation, % control (time course)","[6]; HPAF, LY293111 500 nM, 6 h",67.5 ± 11.6 % control
same,"proliferation, % control (time course)","[6]; HPAF, LY293111 500 nM, 12 h",35.7 ± 8.9 % control
same,"proliferation, % control (time course)","[6]; HPAF, LY293111 500 nM, 24 h",12.4 ± 3.3 % control
same,"proliferation (thymidine incorporation), % control","[6]; HPAF, LY293111 500 nM, 24 hours",10.3 ± 3.0 % control
same,"proliferation (thymidine incorporation), % control","[6]; HPAF, LY293111 1000 nM, 24 hours",2.3 ± 1.4 % control
same,tumor size vs control group,[7],smaller tumors
same,Bcl-2 expression (western blot),[8],inhibited expression
same,DNA fragmentation (apoptosis),[9],distinctive DNA ladder
